In US20060046972A1, “Cytotoxic nucleoside analog compound 003 for treating cancer” (Parker Hughes Institute, priority 2004, published 2006):
Entries after “also recorded” stand apart in the source; their conditions may differ. Where two headings read alike, the source gives them in different places.

Legend:
[1] = system: esterase-mediated metabolism of Compound 003 in BT20 cells; assay: Inhibition of ala-AZT-MP formation by esterase inhibitors, BT20; assay type: cell-based, human
Experimental: (§1) BT20 breast cancer cells were cultured in a medium composed of MEM, 10% FBS, 0:1 mM of nonessential amino acids and Earles salts, and 1% penicillin/streptornyclin Nalm6 cells were maintained in a medium composed of RPMI, 10% fetal bovine serum (FBS) and 1% penicillin/streptomycin. BT20 cells were seeded in 6-cm petri-dishes at 4 million cells per plate. Nalm6 cells at a density of 10^6 cells per ml were also utilized in drug metabolism study. Either one plate of adherent cells or 10 million nonadherent cells were utilized at each experiment. Cells were incubated with DMSO or 100 μM of esterase inhibitor, paraoxon, bis(p-nitrophenyl)phosphate (BNPP), physostigmine, or phenylmethylsulfonyl fluoride (PMSF) (Sigma) for 3.0 minutes, followed by 1 hour incubation of 100 μM Compound 003. After incubation, cells were washed two times with ice-cold PBS, and extracted by addition of 60% methanol. Cell lysates were kept at −20° C. overnight, after which lysates were centrifuged at 15,000×g for 10 minutes to remove the cell debris. One hundred microliters of these lysates were injected directly to HPLC. The amount of metabolite product of the esterase reaction, ala-AZT-MP, was measured to examine the effect of inhibitors on esterase-mediated metabolism of Compound 003.

[2] = system: esterase-mediated metabolism of Compound 003 in Nalm6 cells; assay: Inhibition of ala-AZT-MP formation by esterase inhibitors, Nalm6; assay type: cell-based, human; details: 100 μM inhibitor, then 100 μM Compound 003 1 hour
Experimental: as §1

[3] = Pharmacokinetics in CD-1 mice after intravenous or oral Compound 003; assay type: in vivo; details: female, CD-1, mouse
Experimental: Each plasma sample (200 μL) was mixed 1:4 with acetone (800 μL) and vortexed for at least 30 seconds. Following centrifugation, the supernatant was transferred into a clean tube and dried under nitrogen. A 50 μL solution of 50% methanol in 200 mM HCl was used to reconstitute the extraction residue, and 35 μL was subjected to analytical HPLC. The analytical column used was a 250×4 mm Lichrospher 100, RP-18 (5 μm) and the guard column was a 4×4 mm Lichrospher 100, RP-18 (5 μm). The mobile phase was degassed automatically by the electronic degasser system. The column was equilibrated and eluted under gradient conditions utilizing a flow rate of 1.0 ml/min at ambient temperature. The linear gradient mobile phase was: 0 minute, 100% 10 mM ammonium phosphate buffer (pH 3.7); 20 minutes, 20% acetonitrile, 80% ammonium phosphate buffer (pH 3.7); 20.1-50 minutes, 28% acetonitrile, 72% water (0.1% HAC). The wavelength of detection was set at 270 nm. Peak width, response time and slit werep, set at >0.03 minutes, 0.5 s and 8 nm, respectively.
Female CD-1 mice (6-8 weeks old) (Charles River, Wilmington, Mass.) were housed in a USDA-accredited animal care facility under standard environmental conditions (12-h light/12-h dark photoperiod, 22±1° C., 60±10% relative humidity). All rodents were housed in microisolator cages (Lab Products, Inc., N.J.) containing autoclaved bedding. Mice were allowed free access to autoclaved pellet food and tap water throughout the study. All animal studies are approved by the Parker Hughes Institute Animal Care and Use Committee, and all animal care procedures conformed to the principles outlined in the Guide for the Care and Use of Laboratory Animals (National Research Council;. National Academy Press, Washington D.C. 1996).
Compound 003 (200 mg/kg) dissolved in DMSO was administered intravenously via tail vein to non-fasted mice or orally via gavage to 12-h fasted mice. Four to six mice per time-point were used for pharmacokinetic studies. Blood samples (˜500 μL) were obtained from the ocular venous plexus by retro-orbital venipuncture at 0, 5, 10, 15, 30, 45 minutes, and 1 h, 1.5 h, 2 h, 4 h, 6 h and 8 h after oral administration. All collected blood-samples were heparinized and centrifuged at 7000×g for 5 minutes to separate the plasma fraction from the whole blood. The plasma samples were then processed immediately using the extraction procedure described above.
Pharmacokinetic modeling and parameter calculations were carried out using the WinNonlin Professional Version 3.0 (Pharsight, Inc., Mountain, Calif.) pharmacokinetics software (Chen, C. L., et al., (1999) Pharm Res. 16:117; Chen, C. L., et al., (1999) Pharm Res. 16:1003; Uckun, F. M., et al., (1999) Clin Cancer Res. 5:2954). An appropriate model was chosen on the basis of the lowest sum of weighted squared residuals, the lowest Schwartz Criterion (SC), the lowest Akaike's Information Criterion (AIC) value, the lowest standard errors of the fitted parameters, and the dispersion of the residuals. The elimination half-life was estimated by linear regression analysis of the terminal phase of the plasma concentration-time profile. The systemic clearance (CL) was determined by dividing the dose by the AUC.

[4] = system: Nalm-6 B-lineage leukemia cell line; assay: Intracellular metabolism of Compound 003 to ala-AZT-MP, Nalm6; assay type: in vitro ADME, human
Source text: (§2) Intracellular metabolism of Compound 003 was studied in CEM T-lineage lymphoma cell line, BT20 breast cancer cell line, T98 glioblastoma cell line, and Nalm-6 B-lineage leukemia cell line. CEM and Nalm6 cells were maintained in RPMI supplemented with 10% fetal bovine serum, and 1% penicillin/streptomycin. BT20 and T98 cells w.ere cultured in a medium composed of MEM, 10% fetal bovine serum, 0.1-mM of nonessential amino acids and Earles salts, and 1% penicillin/streptomycin. CEM and Nalm6 cells at a density of 10^6 cells per ml were utilized in the drug metabolism study. BT20 and T98 cells were seeded in 6-cm petri-dishes at 4 million cells and 2 million cells per plate, respectively, the day before the experiment. Either one plate of adherent cells or 10 million non-adherent cells was utilized at each time point. Cells were incubated with various concentrations of the compounds up to 24 hrs at 37° C. After incubation, cells were washed 2 times with ice-cold PBS, and extracted by addition of 0.5-1 ml of 60% methanol. […] With efflux experiments, cells 1×10^6/mL (the same density as in the uptake study) were incubated with 100 μM Compound 003 for 1 hr, washed 2 times with ice-cold PBS, and resuspended with culture medium without drug, and the metabolite efflux from cells to the medium was measured after 6 hr of incubation. […]

[5] = system: BT20 breast cancer cell line; assay: Intracellular metabolism of Compound 003 to ala-AZT-MP, BT20; assay type: in vitro ADME, human
Source text: as §2, with “methanol. Cell lysates were kept at −20° C. overnight, after which lysates were centrifuged at 15000×g for 10 minutes to remove the cell debris. One hundred microliters of these lysates were injected directly to HPLC. For half-life study, cells at the same density as in drug metabolism study were treated with 100 μM Compound 003 for 2 hrs, after which cells were washed 2 times with ice-cold PBS, and resuspended in warm media until the time they were harvested. For uptake and efflux study, cells were seeded at 2 million cells in 2 ml of media.” for “methanol.”

[6] = system: CEM T-lineage lymphoma cell line; assay: Intracellular metabolism of Compound 003 to ala-AZT-MP, CEM; assay type: in vitro ADME, human
Source text: as §2

[7] = system: BT20 cells; assay: Metabolite efflux from cells to the medium; assay type: in vitro ADME, human; details: 100 μM Compound 003 1 hr, efflux after 6 hr
Source text: Intracellular metabolism of Compound 003 was studied in CEM T-lineage lymphoma cell line, BT20 breast cancer cell line, T98 glioblastoma cell line, and Nalm-6 B-lineage leukemia cell line. CEM and Nalm6 cells were maintained in RPMI supplemented with 10% fetal bovine serum, and 1% penicillin/streptomycin. BT20 and T98 cells w.ere cultured in a medium composed of MEM, 10% fetal bovine serum, 0.1-mM of nonessential amino acids and Earles salts, and 1% penicillin/streptomycin. CEM and Nalm6 cells at a density of 10^6 cells per ml were utilized in the drug metabolism study. BT20 and T98 cells were seeded in 6-cm petri-dishes at 4 million cells and 2 million cells per plate, respectively, the day before the experiment. Either one plate of adherent cells or 10 million non-adherent cells was utilized at each time point. Cells were incubated with various concentrations of the compounds up to 24 hrs at 37° C. After incubation, cells were washed 2 times with ice-cold PBS, and extracted by addition of 0.5-1 ml of 60% methanol. […] With efflux experiments, cells 1×10^6/mL (the same density as in the uptake study) were incubated with 100 μM Compound 003 for 1 hr, washed 2 times with ice-cold PBS, and resuspended with culture medium without drug, and the metabolite efflux from cells to the medium was measured after 6 hr of incubation.

[8] = system: BT20 breast cancer cells; assay: Confocal laser scanning microscopy of microtubules / mitotic spindle, BT20; assay type: cell-based, human; details: 185 μM for 24 hours (AZT: similar concentrations)
Experimental: Immunofluorenscence was used to examine the spindle features of human cancer cell lines treated with Compound 003 or 0.5% DMSO. […] The coverslips were incubated with antibodies raised against α-tubulin, γ-tubulin (Sigma Chemical Co., St Louis, Mo.) (40 min 37° C.), washed in PBS-Tx-100, and incubated with an appropriate secondary antibody conjugated to FITC (Jackson ImmunoResearch, Westgrove, Pa.). Cellular DNA was labeled with 5 μM TOTO3 (Molecular Probes, Eugene, Oreg.) for 20 minutes. Coverslips were immediately inverted onto slides in Vectashield (Vector Labs, Burlingame, Calif.) to prevent photobleaching, sealed with nail varnish and stored at −20° C. The slides were examined using a Bio-Rad MRC-1024 Laser Scanning Confocal Microscope equipped with a Kr/Ar laser (BioRad, Hercules, Calif.) mounted on a Nikon Eclipse E800 upright microscope with high numerical aperture objectives (Nikon, Melville, N.Y.). Digital data were processed using Lasersharp (BioRad) and Adobe Photoshop software (Adobe Systems, Mountain View, Calif.). ( See, for example, Navara, et al., 2001, Anticancer Drugs. 12:369; Malaviya, et al., 2002, Leuk Lymphoma. 43, 1329; and Ghosh, 1998, Clin Cancer Res. 4, 2657).

[9] = Wang et al. (1996); cited from earlier work
[10] = iv, plasma metabolite following i.v. 200 mg/kg Compound 003
[11] = iv, plasma metabolite following i.v. 200 mg/kg Compound 003, read-out: elimination half-life (t1/2)
[12] = po, plasma metabolite following p.o. 200 mg/kg Compound 003
[13] = plasma metabolite following oral 200 mg/kg Compound 003, read-out: elimination half-life

In the case of `CCOP(=O)(OCC)Oc1ccc([N+](=O)[O-])cc1` [paraoxon], the “potency order of esterase inhibitors” value [1] is reported as “paraoxon>BNPP>PMSF>physostigmine” and the “inhibition of metabolism of Compound 003 to ala-AZT-MP” value [2] is reported as “most potent inhibitor; also recorded: only paraoxon was effective in inhibiting the metabolism”.
With `O=[N+]([O-])c1ccc(OP(=O)(O)Oc2ccc([N+](=O)[O-])cc2)cc1` [BNPP, Bis(p-nitrophenyl)phosphate] the “potency order of esterase inhibitors” value [1] was “paraoxon>BNPP>PMSF>physostigmine”.
`Cc1cn(C2CC(N=[N+]=[N-])C(COP(=O)(O)NC(C)C(=O)O)O2)c(=O)[nH]c1=O` (centres unmarked) [ala-AZT-MP, 3′-azido-3′-deoxythymidine-5′-alaninyl phosphate] showed an AUC [3, 10] of 191 µM·h, a Cmax [3, 10] of 1880 µM and a Tmax [3, 10] of 1.2 min. For the same molecule, the half-life [3, 11] was 33.2 min, the Tmax ([3]; plasma, 200 mg/kg, mice, after Compound 003, route not distinguished) was < 5 min and the AUC [3, 12] was 20.7 ± 8.5 µM·h. For the same molecule, the Cmax [3, 12] was 9.8 µM, the Tmax [3, 12] was 4.5 min and the half-life [3, 13] was 94.5 min. For the same molecule, the “further intracellular conversion of ala-AZT-MP” value (“further intracellular conversion” for short) [4] was “converted to AZT first then to AZTmp”, the “further intracellular conversion” value [5] was “preferentially converted to AZT-MP” and the “intracellular accumulation of ala-AZT-MP, BT20 relative to the other three cell lines” value ([5]; 25-100 μM Compound 003, 3 hr) was 6-12 fold. The “further intracellular conversion” value [6] was “only AZT was detectable”, the “level of ala-AZT-MP formation, CEM relative to Nalm6” value ([6]; intact cells) was 2 fold and the “efflux of ala-AZT-MP” value [7] was “only detectable from BT20 cells”.
`Cc1cn([C@H]2C[C@H](N=[N+]=[N-])[C@@H](CO)O2)c(=O)[nH]c1=O` [AZT, 3′-azido-3′-deoxythymidine, reference compound] gave an AUC [3, 10] of 152 µM·h, a Cmax [3, 10] of 64.3 µM and a Tmax [3, 10] of 50.4 min. It also gave a half-life [3, 11] of 35 min, an AUC [3, 12] of 386 ± 124 µM·h and a Cmax [3, 12] of 46.9 µM. For the same molecule, the Tmax [3, 12] was 144 min, the half-life [3, 13] was 149 min and the effect on microtubules [8] was “no effect on microtubules”. For the same molecule, the “elimination t1/2 of AZT given as such” value [9] was ~21.2 min.
With `O=S(=O)(F)Cc1ccccc1` [PMSF, phenylmethyl sulfonyl fluoride] the “potency order of esterase inhibitors” value [1] was “paraoxon>BNPP>PMSF>physostigmine”.
